Assay results published in patent EP2327700A1, “Dialkyl triazinamines and use thereof for combating undesired plant growth” (Bayer CropScience AG, priority 2009, dated 2011).
Blank lines part the entries; values can stand above or below the compound they belong to.

Assays:
Lolium multiflorum = assay: Herbicidal action pre-emergence (greenhouse pot test); assay type: in vivo; details: 320 g/ha, visual rating after 3 weeks vs untreated controls
Description: (§1) • 1. Herbizide Wirkung bzw. Kulturpflanzenverträglichkeit im Vorauflauf Samen von mono- bzw. dikotylen Unkraut- bzw. Kulturpflanzen werden in Holzfasertöpfen in sandiger Lehmerde ausgelegt und mit Erde abgedeckt. Die in Form von benetzbaren Pulvern (WP) oder als Emulsionskonzentrate (EC) formulierten erfindungsgemäßen Verbindungen werden dann als wäßrige Suspension bzw. Emulsion mit einer Wasseraufwandmenge von umgerechnet 600 bis 800 I/ha unter Zusatz von 0,2% Netzmittel auf die Oberfläche der Abdeckerde appliziert. Nach der Behandlung werden die Töpfe im Gewächshaus aufgestellt und unter guten Wachstumsbedingungen für die Testpflanzen gehalten. Die visuelle Bonitur der Schäden an den Versuchspflanzen erfolgt nach einer Versuchszeit von 3 Wochen im Vergleich zu unbehandelten Kontrollen (herbizide Wirkung in Prozent (%): 100% Wirkung = Pflanzen sind abgestorben, 0 % Wirkung = wie Kontrollpflanzen). Dabei zeigen beispielsweise die Verbindungen Nr. I-16, I-17, I-48, I-50, I-51, I-52, I-54 und I-63 bei einer Aufwandmenge von 320 g/ha jeweils eine mindestens 80%-ige Wirkung gegen Lolium multiflorum, Setaria viridis und Stellaria media. Die Verbindungen Nr. I-64, I-65, I-66, I-68, I-69 und I-70 zeigen bei einer Aufwandmenge von 320 g/ha jeweils eine mindestens 80%-ige Wirkung gegen Amaranthus retroflexus, Pharbitis purpureumund Veronica persica. • 2. Herbizide Wirkung bzw. Kulturpflanzenverträglichkeit im Nachauflauf Samen von mono- bzw. dikotylen Unkraut- bzw. Kulturpflanzen werden in Holzfasertöpfen in sandigem Lehmboden ausgelegt, mit Erde abgedeckt und im Gewächshaus unter guten Wachstumsbedingungen angezogen. 2 bis 3 Wochen nach der Aussaat werden die Versuchspflanzen im Einblattstadium behandelt. Die in Form von benetzbaren Pulvern (WP) oder als Emulsionskonzentrate (EC) formulierten erfindungsgemäßen Verbindungen werden dann als wäßrige Suspension bzw. Emulsion mit einer Wasseraufwandmenge von umgerechnet 600 bis 800 I/ha unter Zusatz von 0,2% Netzmittel auf die grünen Pflanzenteile gesprüht. Nach ca. 3 Wochen Standzeit der Versuchspflanzen im Gewächshaus unter optimalen Wachstumsbedingungen wird die Wirkung der Präparate visuell im Vergleich zu unbehandelten Kontrollen bonitiert (herbizide Wirkung in Prozent (%): 100% Wirkung = Pflanzen sind abgestorben, 0 % Wirkung = wie Kontrollpflanzen). Dabei zeigen beispielsweise die Verbindungen Nr. I-50, I-52, I-54 und I-64 bei einer Aufwandmenge von 320 g/ha jeweils eine mindestens 80%-ige Wirkung gegen Alopecurus myosuroides, Setaria viridis und Stellaria media. Die Verbindungen Nr. I-51, I-63, I-66, I-69 und I-70 zeigen bei einer Aufwandmenge von 320 g/ha jeweils eine mindestens 80%-ige Wirkung gegen Alopecurus myosuroides, Veronica persica und Viola tricolor.

Setaria viridis [1] = assay: as above; assay type: in vivo; details: 320 g/ha, visual rating after 3 weeks vs untreated controls
Description: as §1

Stellaria media [2] = assay: as above; assay type: in vivo; details: 320 g/ha, visual rating after 3 weeks vs untreated controls
Description: as §1

Setaria viridis [3] = assay: Herbicidal action post-emergence (greenhouse pot test); assay type: in vivo; details: 320 g/ha, visual rating after ca. 3 weeks vs untreated controls
Description: as §1

Stellaria media [4] = assay: as above; assay type: in vivo; details: 320 g/ha, visual rating after ca. 3 weeks vs untreated controls
Description: as §1

Alopecurus myosuroides = assay: as above; assay type: in vivo; details: 320 g/ha, visual rating after ca. 3 weeks vs untreated controls
Description: as §1

[5] = logp (HCOOH) determination; assay type: physicochemical
Veronica persica [6] = assay: Herbicidal action post-emergence (greenhouse pot test); assay type: in vivo; details: 320 g/ha, visual rating after ca. 3 weeks vs untreated controls
Description: as §1

Viola tricolor = assay: as above; assay type: in vivo; details: 320 g/ha, visual rating after ca. 3 weeks vs untreated controls
Description: as §1

Veronica persica [7] = assay: Herbicidal action pre-emergence (greenhouse pot test); assay type: in vivo; details: 320 g/ha, visual rating after 3 weeks vs untreated controls
Description: as §1

Pharbitis purpureum = assay: as above; assay type: in vivo; details: 320 g/ha, visual rating after 3 weeks vs untreated controls
Description: as §1

Amaranthus retroflexus = assay: as above; assay type: in vivo; details: 320 g/ha, visual rating after 3 weeks vs untreated controls
Description: as §1

Structure (SMILES): Cc1cc(C)c2c(c1)C(Nc1nc(C)nc(C)n1)CCC2 (stereo not drawn) [I-17, N2-(5,7-Dimethyl-1,2,3,4-tetrahydro-1-naphthalenyl)-4,6-dimethyl-1,3,5-triazin-2-amine]
- herbizide Wirkung in Prozent (%) (Lolium multiflorum): ≥ 80%
- herbizide Wirkung in Prozent (%) (Setaria viridis [1]): ≥ 80%
- herbizide Wirkung in Prozent (%) (Stellaria media [2]): ≥ 80%

Structure (SMILES): Cc1ccc2c(c1)[C@H](Nc1nc(C)nc(C(C)(C)C)n1)[C@@H](C)C2 [I-51]
- herbizide Wirkung in Prozent (%) (Lolium multiflorum): ≥ 80%
- herbizide Wirkung in Prozent (%) (Setaria viridis [1]): ≥ 80%
- herbizide Wirkung in Prozent (%) (Stellaria media [2]): ≥ 80%
- herbizide Wirkung in Prozent (%) (Veronica persica [6]): ≥ 80%
- herbizide Wirkung in Prozent (%) (Viola tricolor): ≥ 80%
- herbizide Wirkung in Prozent (%) (Alopecurus myosuroides): ≥ 80%
- chromatographic logP ([5]; hcooh): 3.56

Structure (SMILES): COCc1nc(C)nc(N[C@H]2c3cc(C)ccc3C[C@@H]2C)n1 [I-54, N-[(1R,2S)-2,6-Dimethyl-2,3-dihydro-1H-inden-1-yl]-4-(methoxymethyl)-6-methyl-1,3,5-triazin-2-amin]
- herbizide Wirkung in Prozent (%) (Lolium multiflorum): ≥ 80%
- herbizide Wirkung in Prozent (%) (Setaria viridis [1]): ≥ 80%
- herbizide Wirkung in Prozent (%) (Stellaria media [2]): ≥ 80%
- herbizide Wirkung in Prozent (%) (Setaria viridis [3]): ≥ 80%
- herbizide Wirkung in Prozent (%) (Stellaria media [4]): ≥ 80%
- herbizide Wirkung in Prozent (%) (Alopecurus myosuroides): ≥ 80%
- chromatographic logP ([5]; HCOOH (formic acid)): 2.16

Structure (SMILES): Cc1ccc2c(c1)[C@H](Nc1nc(C)nc(C(F)(F)Cl)n1)[C@@H](C)C2 [I-66]
- herbizide Wirkung in Prozent (%) (Veronica persica [7]): ≥ 80%
- herbizide Wirkung in Prozent (%) (Pharbitis purpureum): ≥ 80%
- herbizide Wirkung in Prozent (%) (Amaranthus retroflexus): ≥ 80%
- herbizide Wirkung in Prozent (%) (Veronica persica [6]): ≥ 80%
- herbizide Wirkung in Prozent (%) (Viola tricolor): ≥ 80%
- herbizide Wirkung in Prozent (%) (Alopecurus myosuroides): ≥ 80%
- chromatographic logP ([5]; hcooh): 4.36

Structure (SMILES): Cc1ccc2c(c1)[C@H](Nc1nc(C)nc(C(Cl)Cl)n1)[C@@H](C)C2 [I-69]
- herbizide Wirkung in Prozent (%) (Veronica persica [7]): ≥ 80%
- herbizide Wirkung in Prozent (%) (Pharbitis purpureum): ≥ 80%
- herbizide Wirkung in Prozent (%) (Amaranthus retroflexus): ≥ 80%
- herbizide Wirkung in Prozent (%) (Veronica persica [6]): ≥ 80%
- herbizide Wirkung in Prozent (%) (Viola tricolor): ≥ 80%
- herbizide Wirkung in Prozent (%) (Alopecurus myosuroides): ≥ 80%
- chromatographic logP ([5]; hcooh): 4.13

Structure (SMILES): Cc1nc(NC2CC(C)(C)Oc3cc(Cl)c(F)cc32)nc(C(F)(F)Cl)n1 (stereo not drawn) [I-82]
- chromatographic logP ([5]; hcooh): 4.32

Structure (SMILES): Cc1nc(N[C@@H]2CCOc3c(F)cccc32)nc(C(F)(F)Cl)n1 [I-83]
- chromatographic logP ([5]; hcooh): 3.06

Structure (SMILES): Cc1ccc2c(c1)[C@H](Nc1nc(C)nc(C(F)(F)F)n1)[C@@H](C)C2 [I-87]
- chromatographic logP ([5]; hcooh): 4.21

Structure (SMILES): Cc1nc(N[C@@H]2CCc3ccccc32)nc(C(F)F)n1 [I-91]
- chromatographic logP ([5]; hcooh): 2.69

Structure (SMILES): Cc1nc(NC2CC(C)(C)Oc3cc(Cl)c(F)cc32)nc(C(F)F)n1 (stereo not drawn) [I-95]
- chromatographic logP ([5]; hcooh): 4.32

Structure (SMILES): Cc1nc(NC2CCOc3ccc(C(C)C)cc32)nc(C(F)F)n1 (stereo not drawn) [I-125]
- chromatographic logP ([5]; hcooh): 3.41

Structure (SMILES): Cc1ccc2c(c1)OC(C)(C)CC2Nc1nc(C)nc(C(F)F)n1 (stereo not drawn) [I-130]
- chromatographic logP ([5]; hcooh): 3.3

Structure (SMILES): CCc1ccc2c(c1)C(Nc1nc(C)nc(C(F)(F)F)n1)CCO2 (stereo not drawn) [I-135]
- chromatographic logP ([5]; hcooh): 3.71

Structure (SMILES): COc1ccc2c(c1)CCCC2Nc1nc(C)nc(C(F)F)n1 (stereo not drawn) [I-159]
- chromatographic logP ([5]; hcooh): 2.9

Structure (SMILES): Cc1nc(C)nc(NC2CCc3c(C)cccc32)n1 (stereo not drawn) [I-168, 4,6-Dimethyl-N-(4-methyl-2,3-dihydro-1H-inden-1-yl)-1,3,5-triazin-2-amine]
- chromatographic logP ([5]; HCOOH (formic acid)): 1.36

Structure (SMILES): Cc1nc(N[C@H]2c3cc(Br)ccc3C[C@@H]2C)nc(C(F)F)n1 [I-235, N-[trans-6-Brom-2-methyl-2,3-dihydro-1H-inden-1-yl]-4-(difluoromethyl)-6-methyl-1,3,5-triazin-2-amin]
- chromatographic logP ([5]; hcooh): 3.55

Structure (SMILES): COc1ccc2c(c1)C(Nc1nc(C)nc(C(F)(F)F)n1)CCO2 (stereo not drawn) [I-237]
- chromatographic logP ([5]; hcooh): 2.93

Structure (SMILES): CCc1ccc2c(c1)C(Nc1nc(C)nc(C)n1)CCO2 (stereo not drawn) [I-238]
- chromatographic logP ([5]; hcooh): 1.51

Further lines, with some results ahead:

- chromatographic logP ([5]; hcooh): 2.16
Structure (SMILES): Cc1ccc2c(c1)[C@H](Nc1nc(C)nc(C(C)C)n1)[C@@H](C)C2 [I-50]
- herbizide Wirkung in Prozent (%) (Lolium multiflorum): ≥ 80%
- herbizide Wirkung in Prozent (%) (Setaria viridis [1]): ≥ 80%
- herbizide Wirkung in Prozent (%) (Stellaria media [2]): ≥ 80%
- herbizide Wirkung in Prozent (%) (Setaria viridis [3]): ≥ 80%
- herbizide Wirkung in Prozent (%) (Stellaria media [4]): ≥ 80%
- herbizide Wirkung in Prozent (%) (Alopecurus myosuroides): ≥ 80%

- chromatographic logP ([5]; hcooh): 1.85
Structure (SMILES): CCc1nc(C)nc(N[C@H]2c3cc(C)ccc3C[C@@H]2C)n1 [I-52]
- herbizide Wirkung in Prozent (%) (Lolium multiflorum): ≥ 80%
- herbizide Wirkung in Prozent (%) (Setaria viridis [1]): ≥ 80%
- herbizide Wirkung in Prozent (%) (Stellaria media [2]): ≥ 80%
- herbizide Wirkung in Prozent (%) (Setaria viridis [3]): ≥ 80%
- herbizide Wirkung in Prozent (%) (Stellaria media [4]): ≥ 80%
- herbizide Wirkung in Prozent (%) (Alopecurus myosuroides): ≥ 80%

- chromatographic logP ([5]; hcooh): 1.48
Structure (SMILES): CCc1nc(C)nc(N[C@@H]2CCCc3ccccc32)n1 [I-53]

- chromatographic logP ([5]; hcooh): 1.59
Structure (SMILES): Cc1ccc2c(c1)[C@H](Nc1nc(C)nc(C)n1)[C@@H](C)C2 [I-63]
- herbizide Wirkung in Prozent (%) (Lolium multiflorum): ≥ 80%
- herbizide Wirkung in Prozent (%) (Setaria viridis [1]): ≥ 80%
- herbizide Wirkung in Prozent (%) (Stellaria media [2]): ≥ 80%
- herbizide Wirkung in Prozent (%) (Veronica persica [6]): ≥ 80%
- herbizide Wirkung in Prozent (%) (Viola tricolor): ≥ 80%
- herbizide Wirkung in Prozent (%) (Alopecurus myosuroides): ≥ 80%

- chromatographic logP ([5]; hcooh): 3.44
Structure (SMILES): Cc1ccc2c(c1)[C@H](Nc1nc(C)nc(C(F)F)n1)[C@@H](C)C2 [I-64]
- herbizide Wirkung in Prozent (%) (Veronica persica [7]): ≥ 80%
- herbizide Wirkung in Prozent (%) (Pharbitis purpureum): ≥ 80%
- herbizide Wirkung in Prozent (%) (Amaranthus retroflexus): ≥ 80%
- herbizide Wirkung in Prozent (%) (Setaria viridis [3]): ≥ 80%
- herbizide Wirkung in Prozent (%) (Stellaria media [4]): ≥ 80%
- herbizide Wirkung in Prozent (%) (Alopecurus myosuroides): ≥ 80%

- chromatographic logP ([5]; hcooh): 3.9
Structure (SMILES): Cc1nc(N[C@@H]2CCCc3ccccc32)nc(C(F)(F)Cl)n1 [I-67]

- chromatographic logP ([5]; HCOOH (formic acid)): 4.85
Structure (SMILES): Cc1ccc2c(c1)[C@H](Nc1nc(C)nc(C(Cl)(Cl)Cl)n1)[C@@H](C)C2 [I-70, N-[(1R,2S)-2,6-Dimethyl-2,3-dihydro-1H-inden-1-yl]-4-methyl-6-(trichloromethyl)-1,3,5-triazin-2-amin]
- herbizide Wirkung in Prozent (%) (Veronica persica [7]): ≥ 80%
- herbizide Wirkung in Prozent (%) (Pharbitis purpureum): ≥ 80%
- herbizide Wirkung in Prozent (%) (Amaranthus retroflexus): ≥ 80%
- herbizide Wirkung in Prozent (%) (Veronica persica [6]): ≥ 80%
- herbizide Wirkung in Prozent (%) (Viola tricolor): ≥ 80%
- herbizide Wirkung in Prozent (%) (Alopecurus myosuroides): ≥ 80%

- chromatographic logP ([5]; hcooh): 4.4
Structure (SMILES): Cc1nc(N[C@@H]2CCCc3ccccc32)nc(C(Cl)(Cl)Cl)n1 [I-71]

- chromatographic logP ([5]; HCOOH (formic acid)): 1.35
Structure (SMILES): Cc1nc(C)nc(N[C@@H]2CCCc3ccccc32)n1 [I-78, 4,6-Dimethyl-N-[(1R)-1,2,3,4-tetrahydronaphthalen-1-yl]-1,3,5-triazin-2-amine]

- chromatographic logP ([5]; hcooh): 3.8
Structure (SMILES): Cc1nc(N[C@H]2c3cc(Br)ccc3C[C@@H]2C)nc(C(F)(F)Cl)n1 [I-81]

- chromatographic logP ([5]; hcooh): 3.11
Structure (SMILES): Cc1nc(N[C@@H]2CCOc3ccccc32)nc(C(F)(F)Cl)n1 [I-84]

- chromatographic logP ([5]; hcooh): 3.79
Structure (SMILES): Cc1nc(NC2CCc3ccc(C(C)C)cc32)nc(C(F)F)n1 (stereo not drawn) [I-100]

- chromatographic logP ([5]; hcooh): 3.34
Structure (SMILES): CCOc1ccc2c(c1)C(Nc1nc(C)nc(C(F)F)n1)CCC2 (stereo not drawn) [I-122]

- chromatographic logP ([5]; hcooh): 3.1
Structure (SMILES): CCc1ccc2c(c1)C(Nc1nc(C)nc(C(F)F)n1)CCO2 (stereo not drawn) [I-134]

- chromatographic logP ([5]; hcooh): 3.58
Structure (SMILES): Cc1nc(NC2c3ccc(Cl)cc3CC2C)nc(C(F)F)n1 (stereo not drawn) [I-137]

- chromatographic logP ([5]; hcooh): 3.98
Structure (SMILES): Cc1nc(NC2CCc3c(C)cccc32)nc(C(F)(F)Cl)n1 (stereo not drawn) [I-147]
